The conditions of data set [1]: cited from earlier work.
The nature of data set [2]: Rivastigmine and pamoate contents in rivastigmine pamoate (HPLC). In kind it is physicochemical. The conditions noted are these: HPLC 210 nm. As to the method:
In order to measure the contents of rivastigmine and pamoate of rivastigmine pamoate prepared in Example 1, the sample 10 mg was completely dissolved with dimethyl sulfoxide, and then was diluted into a mobile phase. The diluted solution 20 uL was injected to HPLC and was measured at a detection wavelength 210 nm. The column used in the present measurement was Inertsil ODS-3, 5 um, 4.6×250 mm, and the mobile phase was used by mixing phosphate buffer solution (pH 6.0) and acetonitrile at a ratio of 65:35 (v/v).

As to `CCN(C)C(=O)Oc1cccc([C@H](C)N(C)C)c1` [rivastigmine freebase, rivastigmine], in data set [1], the Solubility in water was no more than 5000 µg/mL.
As for rivastigmine pamoate [Sample 1-1], in data set [2], the “Pamoate content of rivastigmine pamoate” value was 40.49 % by weight and the “Rivastigmine content of rivastigmine pamoate” value (shortened to “Rivastigmine content”) was found to be 57.47 % by weight.
On the same counts, the results for rivastigmine pamoate [Sample 1-2] are 40.47 % by weight and 52.45 % by weight.
rivastigmine pamoate [Sample 1-3]: in data set [2], the “Pamoate content of rivastigmine pamoate” value worked out at 53.79 % by weight and the “Rivastigmine content” value is 41.10 % by weight.
For rivastigmine pamoate [Sample 1-4], in data set [2], the “Pamoate content of rivastigmine pamoate” value was 68.93 % by weight and the “Rivastigmine content” value is 32.19 % by weight.

The values are drawn from patent publication US20220257518A1, “LONG-LASTING FORMULATION CONTAINING RIVASTIGMINE, AND METHOD FOR PREPARING SAME” (priority 2019, published 2022).
